# Where a SMILES comes first, the peptide text is derived from it. [ ]: non-standard residue; d: D form. Aib = CC(C)(N)C(=O)O
# Assays:
# human GLP-1R = molecular target: T1, human GLP-1R (Homo sapiens, UniProt P43220); test: Agonist activity assay for GLP-1R (cAMP HTRF); assay type: cell-based
# T1 construct: expressed in transfected cells
# Protocol: (§1) The activation of GCGR by related compounds will stimulate the formation of cyclic adenosine monophosphate (cAMP) in cells. Thus, the receptor activity can be monitored by cAMP production in proper cells expressing the receptor.
# (§2) Agonist activity assay for GCGR: Cryopreserved stable CHO-K1/GCGR/CRE-Luc cells were taken from a liquid nitrogen tank, thawed in a 37° C. water bath, resuspended in DMEM/F12 medium (Sigma Cat #D8437), centrifuged, and seeded into T75 culture flasks. The cells were passaged at least once for subsequent tests. Before testing, the cells were trypsinized, centrifuged, washed once, and resuspended in serum-free DMEM/F12 medium. The cell density was adjusted, and the cells were plated in a 96-well plate at a density of 2,500 cells/5 μL/well. A 1×buffer solution in Cisbio-cAMP-Gs Dynamic kit was prepared, and IBMX was added at a final concentration of 0.5 mM. 5 μL of polypeptide serially diluted by buffer was added into each well, and the plate was shaken gently for mixing and incubated for 30 minutes at 37° C. cAMP-d2 and Anti-cAMP-Eu^3+-Cryptate were 20-fold diluted with cAMP Lysis and detection buffer respectively and mixed well. 5 μL of diluted cAMP-d2 solution and 5 μL of diluted Anti-cAMP-Eu^3+-Cryptate solution were sequentially added into each well. The mixture was mixed well by moderate vibration, and incubated for 1 hour at room temperature away from light.
# Agonist activity assay for GLP-1R: The method differed from the method described above for the agonist activity assay for GCGR in that a stable CHO-GLP-1R cell line was used.
# [1] = Maximum solubility in phosphate buffer pH 7.4; assay type: physicochemical; conditions: phosphate buffer pH 7.4, room temperature
# [2] = tested on: normal rats (blood glucose); test: Efficacy in normoglycemic rat model; assay type: in vivo, SD rats; conditions: for Blood glucose 15 min / Blood glucose 30 min / Blood glucose 45 min / Blood glucose 60 min: normal rats; for Hyperglycemic efficacy (in words): normoglycemic rats, subcutaneous
# [3] = molecular target: T2, human glucagon receptor (GCGR) (Homo sapiens, UniProt P47871); test: Agonist activity assay for GCGR (cAMP HTRF); assay type: cell-based; conditions: normalized by the activity of the native glucagon
# T2 construct: expressed in transfected cells
# human GIPR = molecular target: T3, human GIPR (Homo sapiens, UniProt P48546); test: Agonist activity assay for GIPR (cAMP HTRF); assay type: cell-based
# T3 construct: expressed in transfected cells
# T3 sequence (P48546 22-466): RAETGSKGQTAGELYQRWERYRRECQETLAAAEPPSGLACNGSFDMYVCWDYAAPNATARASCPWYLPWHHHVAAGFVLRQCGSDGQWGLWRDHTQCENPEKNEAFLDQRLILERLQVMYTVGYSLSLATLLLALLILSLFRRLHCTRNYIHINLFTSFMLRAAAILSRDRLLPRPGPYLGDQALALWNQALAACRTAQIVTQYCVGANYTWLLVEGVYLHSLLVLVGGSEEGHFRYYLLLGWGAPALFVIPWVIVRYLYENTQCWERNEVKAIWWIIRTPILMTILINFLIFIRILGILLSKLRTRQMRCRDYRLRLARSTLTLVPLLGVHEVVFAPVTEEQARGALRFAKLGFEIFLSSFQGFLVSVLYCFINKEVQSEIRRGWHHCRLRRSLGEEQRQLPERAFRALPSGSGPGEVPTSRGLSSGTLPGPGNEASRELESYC
# Protocol: as §1, §2
# Agonist activity assay for GIPR: The method differed from the method described above for the agonist activity assay for GCGR in that a stable CHO-K1/GIPR cell line was used, and the cell density was 3,000 cells/5 μL/well.
# [4] = Chemical stability in phosphate buffer (UPLC purity); assay type: physicochemical
# [5] = tested on: insulin-induced hypoglycemia rat model; test: Efficacy in insulin-induced hypoglycemic rat model; assay type: in vivo, SD rats; conditions: for Blood glucose 60 min / Blood glucose 75 min / Blood glucose 90 min / Blood glucose 105 min: insulin 0.65 IU/kg at T0
# [6] = 0.5 nmol/kg subcutaneous single dose
# [7] = 2 nmol/kg subcutaneous single dose
# [8] = 6 nmol/kg subcutaneous single dose
# [9] = 4° C., phosphate buffer pH 7.4, 1 mg/mL
# [10] = 25° C., phosphate buffer pH 7.4, 1 mg/mL
# [11] = 6 nmol/kg subcutaneous at 45 min
# [12] = 12 nmol/kg subcutaneous at 45 min
# [13] = 20 nmol/kg subcutaneous at 45 min
# T1 sequence (P43220 24-463): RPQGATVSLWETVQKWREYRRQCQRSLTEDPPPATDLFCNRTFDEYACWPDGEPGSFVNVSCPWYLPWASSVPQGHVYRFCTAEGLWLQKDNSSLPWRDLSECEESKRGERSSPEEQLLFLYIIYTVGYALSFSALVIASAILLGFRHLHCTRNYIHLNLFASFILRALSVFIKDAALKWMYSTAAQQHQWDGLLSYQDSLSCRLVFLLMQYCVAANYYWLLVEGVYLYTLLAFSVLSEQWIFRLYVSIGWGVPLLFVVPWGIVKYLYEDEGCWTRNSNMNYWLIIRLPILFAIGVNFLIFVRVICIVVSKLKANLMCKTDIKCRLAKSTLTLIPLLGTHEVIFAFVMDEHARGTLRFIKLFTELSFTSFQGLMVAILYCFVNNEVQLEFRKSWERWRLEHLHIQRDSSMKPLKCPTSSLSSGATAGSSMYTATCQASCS
# T2 sequence (P47871 26-477): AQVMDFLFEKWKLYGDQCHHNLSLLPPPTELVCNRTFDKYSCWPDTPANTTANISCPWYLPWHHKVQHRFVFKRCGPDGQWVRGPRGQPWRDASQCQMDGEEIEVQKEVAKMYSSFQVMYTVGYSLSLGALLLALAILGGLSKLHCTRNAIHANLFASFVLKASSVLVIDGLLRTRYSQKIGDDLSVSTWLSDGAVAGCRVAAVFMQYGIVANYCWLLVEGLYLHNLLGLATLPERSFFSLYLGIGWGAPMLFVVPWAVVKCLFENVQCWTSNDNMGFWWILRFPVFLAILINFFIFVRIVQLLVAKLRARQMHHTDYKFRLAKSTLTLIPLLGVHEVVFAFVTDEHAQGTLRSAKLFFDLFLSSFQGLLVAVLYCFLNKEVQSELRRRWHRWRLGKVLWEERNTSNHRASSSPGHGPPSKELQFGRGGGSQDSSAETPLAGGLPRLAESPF
smiles,measurement,setting,value
CC(C)C[C@H](NC(=O)[C@H](Cc1ccc(O)cc1)NC(=O)[C@H](CCCCN)NC(=O)[C@H](CO)NC(=O)[C@H](Cc1ccc(O)cc1)NC(=O)[C@H](CC(=O)O)NC(=O)[C@H](CO)NC(=O)[C@@H](NC(=O)[C@H](Cc1ccccc1)NC(=O)[C@@H](NC(=O)CNC(=O)[C@H](CCC(N)=O)NC(=O)[C@H](CO)NC(=O)[C@@H](N)Cc1c[nH]cn1)[C@@H](C)O)[C@@H](C)O)C(=O)N[C@@H](CC(=O)O)C(=O)N[C@@H](CC(C)C)C(=O)NC(C)(C)C(=O)N[C@@H](CCCNC(=N)N)C(=O)N[C@@H](C)C(=O)N[C@@H](CCC(N)=O)C(=O)N[C@@H](CCC(=O)O)C(=O)N[C@@H](Cc1ccccc1)C(=O)N[C@H](C(=O)N[C@@H](CCC(N)=O)C(=O)N[C@@H](Cc1c[nH]c2ccccc12)C(=O)N[C@@H](CC(C)C)C(=O)N[C@@H](CCC(=O)O)C(=O)N[C@@H](CO)C(=O)N[C@H](C(=O)O)[C@@H](C)O)C(C)C [Compound 40] (H-HSQGTFTSDYSKYLDL[Aib]RAQEFVQWLEST-OH),GLP-1R % Activity relative to native GLP-1,human GLP-1R,0.192%
same,solubility at 5 min,[1],5190 µg/mL
same,Percentage residues 0 min,human liver microsomes,100.0%
same,T½,"human liver microsomes; human, microsomes, 1 μM",2.0895 h
same,Percentage residues 15 min,"human liver microsomes; human, microsomes, 0.25 h, 1 μM",100.5%
same,Percentage residues 30 min,"human liver microsomes; human, microsomes, 0.5 h, 1 μM",89.85%
same,Percentage residues 60 min,"human liver microsomes; human, microsomes, 1 h, 1 μM",66.96%
same,Percentage residues 120 min,"human liver microsomes; human, microsomes, 2 h, 1 μM",41.48%
same,Blood glucose 15 min,[2]; [6],9.45 mmol/L
same,Blood glucose 30 min,[2]; [6],8.55 mmol/L
same,Blood glucose 45 min,[2]; [6],6.93 mmol/L
same,Blood glucose 60 min,[2]; [6],6.10 mmol/L
same,Blood glucose 15 min,[2]; [7],8.60 mmol/L
same,Blood glucose 30 min,[2]; [7],9.52 mmol/L
same,Blood glucose 45 min,[2]; [7],8.35 mmol/L
same,Blood glucose 60 min,[2]; [7],6.40 mmol/L
same,Blood glucose 15 min,[2]; [8],9.63 mmol/L
same,Blood glucose 30 min,[2]; [8],10.22 mmol/L
same,Blood glucose 45 min,[2]; [8],8.83 mmol/L
same,Blood glucose 60 min,[2]; [8],7.10 mmol/L
same,Hyperglycemic efficacy (in words),[2]; listed as Glucagon analog 40,raised the blood glucose level in rats in a dose-dependent manner
same,Hyperglycemic efficacy (in words),[2]; listed as glucagon analog 40,significantly better than that of Dasiglucagon
same,Relative activity,[3],318%
same,EC50,"human GIPR; CHO-K1/GIPR cell line, cAMP",> 100 nM
same,GIPR % Activity relative to native GIP,human GIPR; relative to native GIP,<0.0700%
same,Chemical stability in phosphate buffers (in words),[4],better chemical stability in phosphate buffers than that of Dasiglucagon
same,Purity Day 7,[4]; [9],99.40%
same,Purity Day 14,[4]; [9],99.87%
same,Purity Day 21,[4]; [9],100.27%
same,Purity Day 28,[4]; [9],100.59%
same,Purity Day 7,[4]; [10],99.70%
same,Purity Day 14,[4]; [10],99.54%
same,Purity Day 21,[4]; [10],97.63%
same,Purity Day 28,[4]; [10],97.90%
same,Purity Day 0,"[4]; phosphate buffer pH 7.4, 1 mg/mL, day 0 (normalization)",100.00%
same,Blood glucose 60 min,[5]; [11],6.65 mmol/L
same,Blood glucose 75 min,[5]; [11],9.05 mmol/L
same,Blood glucose 90 min,[5]; [11],7.08 mmol/L
same,Blood glucose 105 min,[5]; [11],6.99 mmol/L
same,Blood glucose 60 min,[5]; [12],7.40 mmol/L
same,Blood glucose 75 min,[5]; [12],9.50 mmol/L
same,Blood glucose 90 min,[5]; [12],9.13 mmol/L
same,Blood glucose 105 min,[5]; [12],8.63 mmol/L
same,Blood glucose 60 min,[5]; [13],6.87 mmol/L
same,Blood glucose 75 min,[5]; [13],9.68 mmol/L
same,Blood glucose 90 min,[5]; [13],9.28 mmol/L
same,Blood glucose 105 min,[5]; [13],9.00 mmol/L
same,Effect on raising blood glucose level (in words),[5]; same dose (12 nmol/kg),significantly better than that of Dasiglucagon and lasts longer
